Experimental data: ChEMBL document CHEMBL3352151, “In vitro and in vivo antibacterial evaluation and mechanistic study of ornithine based small cationic lipopeptides against antibiotic resistant clinical isolates” (Eur J Med Chem, 2014)
Values after ≈ are worked out from the molar mass of the structure shown. Active and inactive are the calls of the source. No cut-off for these calls is given here. Square brackets hold non-standard residues; d marks the D form. Peptide text beside a SMILES is read from it. * marks the point of attachment. Stearoyl = CCCCCCCCCCCCCCCCCC(=O)*; Palmitoyl = CCCCCCCCCCCCCCCC(=O)*; Myristoyl = CCCCCCCCCCCCCC(=O)*; Orn = NCCC[CH](N)C(=O)O

Assays:
Enterococcus faecium [1] = assay: Antibacterial activity against clinical isolates of Enterococcus faecium GMCH/B0102 after overnight incubation by microdilution broth assay; assay type: functional
Acinetobacter baumannii [2] = assay: Antibacterial activity against clinical isolates of Acinetobacter baumannii GMCH/B0083 after overnight incubation by microdilution broth assay; assay type: functional
[3] = test system: Staphylococcus epidermidis; assay: Antibacterial activity against clinical isolates of ampicillin-resistant Staphylococcus epidermidis GMCH/R-Amp008 after overnight incubation by microdilution broth assay; assay type: functional
Escherichia coli [4] = assay: Antibacterial activity against clinical isolates of Escherichia coli PGI/DML02250 after overnight incubation by microdilution broth assay; assay type: functional
Klebsiella pneumoniae [5] = assay: Antibacterial activity against clinical isolates of Klebsiella pneumoniae GMCH/B0127 after overnight incubation by microdilution broth assay; assay type: functional
[6] = test system: Staphylococcus epidermidis; assay: Antibacterial activity against clinical isolates of Staphylococcus epidermidis GMCH/B0057 after overnight incubation by microdilution broth assay; assay type: functional
Haemophilus influenzae [7] = assay: Antibacterial activity against clinical isolates of ciprofloxacin-resistant Haemophilus influenzae PGI/DML01744 after overnight incubation by microdilution broth assay; assay type: functional
Pseudomonas aeruginosa [8] = assay: Antibacterial activity against clinical isolates of streptomycin-resistant Pseudomonas aeruginosa PGI/DML01991 after overnight incubation by microdilution broth assay; assay type: functional
Acinetobacter baumannii [9] = assay: Antibacterial activity against clinical isolates of imipenem-resistant Acinetobacter baumannii GMCH/R-Imi003 after overnight incubation by microdilution broth assay; assay type: functional
Staphylococcus aureus [10] = assay: Antibacterial activity against clinical isolates of Staphylococcus aureus PGI/DML03054 after overnight incubation by microdilution broth assay; assay type: functional
Staphylococcus aureus [11] = assay: Antibacterial activity against clinical isolates of methicillin-resistant Staphylococcus aureus PGI/DML03149 after overnight incubation by microdilution broth assay; assay type: functional
[12] = Cytotoxicity against human HaCaT cells assessed as cell viability at 100 ug/ml after 18 hrs by MTT assay; assay type: cell-based; conditions: read-out: Activity
[13] = Cytotoxicity against human HaCaT cells assessed as cell viability at 500 ug/ml after 18 hrs by MTT assay; assay type: cell-based; conditions: read-out: Activity
Escherichia coli [14] = assay: Antibacterial activity against clinical isolates of imipenem-resistant Escherichia coli PGI/DML02292 after overnight incubation by microdilution broth assay; assay type: functional
Enterococcus faecalis [15] = assay: Antibacterial activity against clinical isolates of gentamicin-resistant Enterococcus faecalis GMCH/R-Gen011 after overnight incubation by microdilution broth assay; assay type: functional
Enterococcus faecium [16] = assay: Antibacterial activity against clinical isolates of penicillin-resistant Enterococcus faecium GMCH/R-Pen003 after overnight incubation by microdilution broth assay; assay type: functional
Haemophilus influenzae [17] = assay: Antibacterial activity against clinical isolates of Haemophilus influenzae PGI/DML01751 after overnight incubation by microdilution broth assay; assay type: functional
Enterococcus faecalis [18] = assay: Antibacterial activity against clinical isolates of Enterococcus faecalis GMCH/B0091 after overnight incubation by microdilution broth assay; assay type: functional
Streptococcus pneumoniae [19] = assay: Antibacterial activity against clinical isolates of Streptococcus pneumoniae PGI/DML02468 after overnight incubation by microdilution broth assay; assay type: functional
Pseudomonas aeruginosa [20] = assay: Antibacterial activity against clinical isolates of Pseudomonas aeruginosa PGI/DML02084 after overnight incubation by microdilution broth assay; assay type: functional
Streptococcus pneumoniae [21] = assay: Antibacterial activity against clinical isolates of erythromycin-resistant Streptococcus pneumoniae PGI/DML02213 after overnight incubation by microdilution broth assay; assay type: functional
Klebsiella pneumoniae [22] = assay: Antibacterial activity against clinical isolates of kanamycin-resistant Klebsiella pneumoniae GMCH/R-Kan006 after overnight incubation by microdilution broth assay; assay type: functional
[23] = Membrane permeabilization activity assessed as release of calcein from liposomes at 1:10 lipopeptide:lipid molar ratio after 5 mins by fluorescence assay
[24] = Membrane permeabilization activity assessed as release of calcein from liposomes at 1:50 lipopeptide:lipid molar ratio after 5 mins by fluorescence assay
Escherichia coli [25] = assay: Binding affinity to Escherichia coli PGI/DML02292 DNA at 12 ug/ml after 1 hr by agarose gel electrophoresis
Plasma = assay: Drug degradation in human plasma at 1 ug/ml after 24 hrs by RP-HPLC analysis; assay type: ADME, cell-free
[26] = Membrane permeabilization activity assessed as release of calcein from liposomes after 5 mins by fluorescence assay

| Structure (SMILES) | MIC (Enterococcus faecium [1]) [µg/mL] | MIC (Acinetobacter baumannii [2]) [µg/mL] | MIC [3] [µg/mL] | MIC (Escherichia coli [4]) [µg/mL] | MIC (Klebsiella pneumoniae [5]) [µg/mL] | MIC [6] [µg/mL] | MIC (Haemophilus influenzae [7]) [µg/mL] | MIC (Pseudomonas aeruginosa [8]) [µg/mL] | MIC (Acinetobacter baumannii [9]) [µg/mL] | MIC (Staphylococcus aureus [10]) [µg/mL] | MIC (Staphylococcus aureus [11]) [µg/mL] | viability at 18 h, 100 ug/ml [12] [%] | viability at 18 h, 500 ug/ml [13] [%] | MIC (Escherichia coli [14]) [µg/mL] | MIC (Enterococcus faecalis [15]) [µg/mL] | MIC (Enterococcus faecium [16]) [µg/mL] | MIC (Haemophilus influenzae [17]) [µg/mL] | MIC (Enterococcus faecalis [18]) [µg/mL] | MIC (Streptococcus pneumoniae [19]) [µg/mL] | MIC (Pseudomonas aeruginosa [20]) [µg/mL] | other results |
| --- | --- | --- | --- | --- | --- | --- | --- | --- | --- | --- | --- | --- | --- | --- | --- | --- | --- | --- | --- | --- | --- |
| CCCCCCCCCCCCCCCC(=O)NC(CCCN)C(=O)NC(CCCN)C(=O)NC(CCCN)C(=O)NC(CCCN)C(=O)NC(CCCN)C(N)=O (stereo not drawn) (Palmitoyl-[Orn][Orn][Orn][Orn][Orn]-NH2; configuration not given here) | 3 (≈ 3.63 µM) | 12.5 (≈ 15.1 µM) | 7.5 (≈ 9.08 µM) | 1.5 (≈ 1.82 µM) | 2.5 (≈ 3.03 µM) | 3.1 (≈ 3.75 µM) | 12.5 (≈ 15.1 µM) | 6.5 (≈ 7.87 µM) | 9.5 (≈ 11.5 µM) | 7.5 (≈ 9.08 µM) | 10 (≈ 12.1 µM) | > 80 | > 80 | 5 (≈ 6.05 µM) | 12.5 (≈ 15.1 µM) | 7.5 (≈ 9.08 µM) | 10 (≈ 12.1 µM) | 2 (≈ 2.42 µM) | 3.1 (≈ 3.75 µM) | 2 (≈ 2.42 µM) | MIC (Streptococcus pneumoniae [21]): 7.5 µg/mL (≈ 9.08 µM); MIC (Klebsiella pneumoniae [22]): 10 µg/mL (≈ 12.1 µM) |
| CCCCCCCCCCCCCCCCCC(=O)NC(CCCN)C(=O)NC(CCCN)C(=O)NC(CCCN)C(=O)NC(CCCN)C(N)=O (stereo not drawn) (Stearoyl-[Orn][Orn][Orn][Orn]-NH2; configuration not given here) | 7.5 (≈ 10.1 µM) | 10 (≈ 13.5 µM) | 5 (≈ 6.76 µM) | 7.5 (≈ 10.1 µM) | 3.5 (≈ 4.73 µM) | 5.5 (≈ 7.43 µM) | 12.5 (≈ 16.9 µM) | 2 (≈ 2.7 µM) | 12.5 (≈ 16.9 µM) | 5 (≈ 6.76 µM) | 7.5 (≈ 10.1 µM) | 82 | 67 | 7.5 (≈ 10.1 µM) | 10 (≈ 13.5 µM) | 12.5 (≈ 16.9 µM) | 8 (≈ 10.8 µM) | 3.1 (≈ 4.19 µM) | 4 (≈ 5.4 µM) | 4.5 (≈ 6.08 µM) | Activity [23]: 79%; Activity [24]: 43%; Activity (Escherichia coli [25]): inactive; Stability (Plasma): Stable; Activity [26]: Dose-dependent effect; MIC (Streptococcus pneumoniae [21]): 12.5 µg/mL (≈ 16.9 µM); MIC (Klebsiella pneumoniae [22]): 8 µg/mL (≈ 10.8 µM) |
| CCCCCCCCCCCCCCCCCC(=O)NC(CCCN)C(=O)NC(CCCN)C(=O)NC(CCCN)C(=O)NC(CCCN)C(=O)NC(CCCN)C(N)=O (stereo not drawn) (Stearoyl-[Orn][Orn][Orn][Orn][Orn]-NH2; configuration not given here) | 6.2 (≈ 7.26 µM) | 10 (≈ 11.7 µM) | 10.5 (≈ 12.3 µM) | 5 (≈ 5.85 µM) | 4 (≈ 4.68 µM) | 4.5 (≈ 5.27 µM) | 15 (≈ 17.6 µM) | 5 (≈ 5.85 µM) | 7.5 (≈ 8.78 µM) | 6.2 (≈ 7.26 µM) | 10.5 (≈ 12.3 µM) | > 80 | > 80 | 7.5 (≈ 8.78 µM) | 15 (≈ 17.6 µM) | 12.5 (≈ 14.6 µM) | 10 (≈ 11.7 µM) | 4.5 (≈ 5.27 µM) | 2.5 (≈ 2.93 µM) | 2.5 (≈ 2.93 µM) | MIC (Streptococcus pneumoniae [21]): 10 µg/mL (≈ 11.7 µM); MIC (Klebsiella pneumoniae [22]): 12.5 µg/mL (≈ 14.6 µM) |
| CCCCCCCCCCCCCC(=O)NC(CCCN)C(=O)NC(CCCN)C(=O)NC(CCCN)C(=O)NC(CCCN)C(=O)NC(CCCN)C(N)=O (stereo not drawn) (Myristoyl-[Orn][Orn][Orn][Orn][Orn]-NH2; configuration not given here) | 3.1 (≈ 3.88 µM) | 8.25 (≈ 10.3 µM) | 12.5 (≈ 15.7 µM) | 2.5 (≈ 3.13 µM) | 6.2 (≈ 7.77 µM) | 7.5 (≈ 9.4 µM) | 15.5 (≈ 19.4 µM) | 4.25 (≈ 5.32 µM) | 6.5 (≈ 8.14 µM) | 10 (≈ 12.5 µM) | 12.5 (≈ 15.7 µM) | > 80 | > 80 | 6.25 (≈ 7.83 µM) | 10.5 (≈ 13.2 µM) | 6.21 (≈ 7.78 µM) | 12.5 (≈ 15.7 µM) | 1.5 (≈ 1.88 µM) | 3.5 (≈ 4.39 µM) | 1.5 (≈ 1.88 µM) | MIC (Streptococcus pneumoniae [21]): 12.5 µg/mL (≈ 15.7 µM); MIC (Klebsiella pneumoniae [22]): 7.5 µg/mL (≈ 9.4 µM) |
